The nature of data set [1]: Water solubility / lipophilicity of the API. In kind it is physicochemical.
Data set [2] relates to zoster. The settings on record: suspension, 250, 500 and 750 mg BID for 7 days, zoster patients, acyclovir control; cited from earlier work.
The conditions of data set [3]: human, multiple dosing, total daily doses of up to 6.0 g; cited from earlier work.
Data set [4] can be described thus: Competitive and non-competitive slurry experiments in ethanol (energy relationships). Type of data set: physicochemical. The method, then: Competitive slurry experiments were performed using mixtures (normally 50:50) of the forms in ethanol and agitating at approximately 25° C. for several days. Noncompetitive slurries were performed by agitating excess solids of one form in ethanol at room temperature. […] In both the competitive and noncompetitive slurry experiments, the solids were vacuum filtered and analyzed by XRD. The XRD patterns are used to determine if the undissolved solids had transformed into a different polymorphic form. In one case, a different polymorphic form emerged that was different than either of the two forms initially present. This indicates both original forms were metastable to the final form isolated.

A short description of data set [5]: Powder flow (Carr Index, tapped compressibility). In kind it is physicochemical. From the text:
The flow characteristics of the solid products of this invention can be measured by the Carr index [Pharmaceutical Preformulation and Formulation, A practical guide from candidate selection to commercial dosage form, Mark Gibson, Ed.; Interpharm Press, 2002; pages 386-7.) By subjecting a powder to mechanical forces, resistance to powder flow can be observed. The increase in bulk density (compressibility) of a powder subjected to tapping can be used to determine the Carr index. In some embodiments, the Polymorph A enriched valomaciclovir has a Carr index value range from about 35 to about 50.
By subjecting a powder to mechanical forces, resistance to powder flow can be observed. The increase in bulk density (compressibility) of a powder subjected to tapping can be used to determine the Carr index. This index was measured for each of the four recrystallized batches and tabulated below.
Powder flow characteristics were compared using the Carr Index. By subjecting a powder to mechanical forces, resistance to powder flow can be observed. The increase in bulk density (compressibility) of a powder subjected to tapping can be used to determine the Carr index. A summary of Carr indices and qualitative flow properties are summarized below in Table 13.
Batches were sieved to <1000 microns before testing. This was necessary to remove any clumps in the samples.

Data set [6] can be described thus: Polymorph screening study, summary of forms. In kind it is physicochemical. Conditions: Table 12 summary. The method, then: A polymorph screening study was performed on valomaciclovir active pharmaceutical ingredient. The screen entailed recrystallizing the material using solvent recrystallization, recrystallization from the melt, annealing experiments, and slurry experiments. Overall, the API was recrystallized under more than 100 different crystal growth conditions and analyzed using powder x-ray diffraction. A chemometric treatment of the x-ray data was used to categorize the samples into different groups. These groups were studied using thermal, optical, spectroscopic and other tools to elucidate which groups represent unique solid state forms of the API.
The raw diffraction data generated from the polymorph screening experiments (solvent recrystallization, recrystallization from the melt, annealing, non-competitive slurries) were initially categorized into 8 different groups using a chemometric treatment. Analyses of these different groups were used to perform additional experiments (e.g. DSC, TGA, HSM, NMR, etc.) to refine the groups identified by the chemometric treatment.

Data set [7] in a line: Particle and agglomerate size by polarized light microscopy in silicone oil. In kind it is physicochemical. From the text: The particle size of the solid product of this invention can be evaluated in silicone oil using polarized light microscopy. In some embodiments, Polymorph A enriched valomaciclovir has particle size range from about 10 to about 300 microns as measured using this system.
Polarized light microscopy was used to evaluate the particle size range of the recrystallized samples in silicone oil. The particle size range is reported in Table 4 along with the powder flow data.
A Zeiss Universal microscope configured with a polarized visible light source and polarizable analyzer was used to evaluate the optical properties of the samples. Specimens were typically mounted on a microscope slide with a drop of immersion oil and a cover glass. Magnification was typically 250×. Observations of particle/crystal size and shape were recorded. The presence of birefringence was also noted.

The test system of data set [8] is HSV-2. The settings on record: cited from earlier work.
In data set [9] the test system is human varicella zoster virus (VZV). Conditions: cited from earlier work.
Data set [10] concerns HSV-I. The settings on record: cited from earlier work.
The test system of data set [11] is human herpesvirus-6 (HHV-6). Conditions: cited from earlier work.
For data set [12], the system named is Epstein-Barr virus (EBV). The settings on record: cited from earlier work.
Data set [13] can be described thus: Powder flow (Carr Index, tapped compressibility). In kind it is physicochemical. Conditions: visual observation.
[14] abbreviates: Table 2, earlier valomaciclovir batches, sieved to <1000 microns.
Where [15] appears, read: Table 2, earlier batches, no unit in table (microns).

Consider 14 compounds from patent publication US9492456B2, “Valomaciclovir polymorphs” (EPIPHANY BIOSCIENCES, INC., priority 2007, dated 2016).

Molecules are shown by their SMILES. “Also recorded” adds a separate entry of the source. Read-outs that look alike come from different tables or passages of the source.

On to `CCCCCCCCCCCCCCCCCC(=O)OC[C@H](CCOC(=O)[C@@H](N)C(C)C)Cn1cnc2c(=O)[nH]c(N)nc21` [valomaciclovir, L-valine, (3R)-3-[(2-amino-1,6-dihydro-6-oxo-9H-purin-9-yl)methyl]-4-[(1-oxooctadecyl)oxy]butyl ester], for which the “Lipophilicity (in words)” value in data set [1] is given as “fairly lipophilic”. In addition, the “Solubility in water (in words)” value in data set [1] (water) is “practically insoluble in water”. Further, in data set [2], the Zoster lesion healing result is given as “proof-of-concept for zoster lesion healing”. Also, in data set [3], the Safety and tolerability result is “safe and well tolerated”.
With `CCCCCCCCCCCCCCCCCC(=O)OC[C@@H](CCn1cnc2c(=O)[nH]c(N)nc21)COC(=O)[C@@H](N)C(C)C` [Form A], the “Thermodynamic stability (in words)” value in [4] (from slurry experiments and thermal behaviour) was “most stable polymorphic form; also recorded: more thermodynamically stable than the B polymorphs; also recorded: thermodynamically stable form”; in data set [4] (from slurry experiments and thermal behaviour, listed as Polymorph A), “thermodynamically the most stable polymorph of valomaciclovir”. Further, the “Relative solubility of polymorphic forms (in words)” value in [4] (inferred from slurry conversion / enantiotropic relationship) is on record as “less soluble”. Besides, the results for the “Flowability (in words)” value in data set [5] (listed as Polymorph A) and in data set [5] (listed as Polymorph A enriched valomaciclovir) were “more flowable” and “good flow characteristics”, respectively. In data set [6], the “Description (stability class of the polymorphic form)” value (from here on “Description”) is “Thermodynamically”.
In the case of `CCCCCCCCCCCCCCCCCC(=O)OCC(CCOC(=O)C(N)C(C)C)Cn1cnc2c(=O)[nH]c(N)nc21` (stereo not shown) [Batch 52772-3-17], the “Carr Index” value in [5] (Table 4, recrystallized samples (ethanol or SDA 3C), listed as 52772-3-17) came out at 56. In addition, the “Typical Particle Size Range” value in [7] (Table 4, recrystallized samples, in silicone oil, no unit in table, listed as 52772-3-17) is 10-30.
Turning to `CCCCCCCCCCCCCCCCCC(=O)OC[C@H](CCOC(=O)[C@@H](N)C(C)C)Cn1cnc2c(=O)[nH]c(N)nc21` [Batch 52772-5-8], the “Carr Index” value in data set [5] (Table 4, recrystallized samples (ethanol or SDA 3C), listed as 52772-5-8) is recorded as 44. The “Typical Particle Size Range” value in data set [7] (Table 4, recrystallized samples, in silicone oil, no unit in table, listed as 52772-5-8) is recorded as 35-50.
Turning to `CCCCCCCCCCCCCCCCCC(=O)OCC(CCn1cnc2c(=O)[nH]c(N)nc21)COC(=O)C(N)C(C)C` (stereo not shown) [Form B3], the “Description” value in data set [6] is given as “Metastable Polymorph”.
Consider `CCCCCCCCCCCCCCCCCC(=O)OCC(CCOC(=O)C(N)C(C)C)Cn1cnc2c(=O)[nH]c(N)nc21` (stereo not shown) [Batch 52772-2-7], for which the “Carr Index” value in [5] (Table 4, recrystallized samples (ethanol or SDA 3C), listed as 52772-2-7) is 53. The “Typical Particle Size Range” value in data set [7] (Table 4, recrystallized samples, in silicone oil, no unit in table, listed as 52772-2-7) is given as 20-50.
For the compound `CCCCCCCCCCCCCCCCCC(=O)OC[C@@H](CCn1cnc2c(=O)[nH]c(N)nc21)COC(=O)[C@@H](N)C(C)C` [Batch 12-03-018], the “Carr Index” value in [5] (setting [14]) turned out to be 48. Besides, in data set [7] (setting [15]), the “Agglomerate Size” value is given as 100 and the “Typical Particle Size Range” value is recorded as 5-40.
As to `Nc1nc2c(ncn2C[C@H](CO)CCO)c(=O)[nH]1` [Form H2G], the “Antiviral activity (in words)” value in data set [8], in data set [9], in data set [10], in data set [11] and in data set [12] was “potent activity” in each case.
In the case of `CCCCCCCCCCCCCCCCCC(=O)OCC(CCn1cnc2c(=O)[nH]c(N)nc21)COC(=O)C(N)C(C)C` (stereo not shown) [Form B1], the “Description” value in data set [6] was “Metastable Polymorph”.
As for `CCCCCCCCCCCCCCCCCC(=O)OC[C@H](CCOC(=O)[C@@H](N)C(C)C)Cn1cnc2c(=O)[nH]c(N)nc21` [Batch 146756], the “Flowability (in words)” value in [5] is given as “extremely poor flowability”. Moreover, the “Carr Index” value in data set [5] (setting [14]) is listed as 64. For the same compound, in data set [7] (setting [15]), the “Agglomerate Size” value was 200 and the “Typical Particle Size Range” value is reported as 5-20. For the same compound, the “Handleability and powder flow” value in [13] is “poor handleability and poor powder flow”.
For `CCCCCCCCCCCCCCCCCC(=O)OCC(CCn1cnc2c(=O)[nH]c(N)nc21)COC(=O)C(N)C(C)C` (stereo not shown) [Form B4], the “Description” value in [6] is “Metastable Polymorph”.
As for `CCCCCCCCCCCCCCCCCC(=O)OC[C@H](CCOC(=O)[C@@H](N)C(C)C)Cn1cnc2c(=O)[nH]c(N)nc21` [Batch 52772-8-10], in [5] (Table 4, recrystallized samples (ethanol or SDA 3C), listed as 52772-8-10), the “Carr Index” value worked out at 38. The “Typical Particle Size Range” value in [7] (Table 4, recrystallized samples, in silicone oil, no unit in table, listed as 52772-8-10) is on record as 150-300.
In the case of `CCCCCCCCCCCCCCCCCC(=O)OCC(CCOC(=O)C(N)C(C)C)Cn1cnc2c(=O)[nH]c(N)nc21` (stereo not shown) [Form B2], the “Description” value in data set [6] is “Metastable Polymorph”.
With `CCCCCCCCCCCCCCCCCC(=O)OCC(CCn1cnc2c(=O)[nH]c(N)nc21)COC(=O)C(N)C(C)C` (stereo not shown) [Form H], in data set [4], the “Relative solubility of polymorphic forms (in words)” value was “more soluble” and the “Thermodynamic stability (in words)” value is “less thermodynamically stable than the B polymorphs”.
